Reference: publication PMC4947994 (Acta Naturae, 2016)
One block for each compound: values may come before it.

What was measured:
murine PARP-2 = molecular target: T1, murine PARP-2 (Mus musculus, UniProt O88554); test: PARP-2 auto-poly(ADP-ribosyl)ation enzyme assay ([3H]NAD+ incorporation); format: biochemical; details: for IC50: auto-poly(ADP-ribosyl)ation, NAD+ 0.4 mM, 37°C
T1 construct: made in house
Method: (§1) Recombinant human PARP-1 and murine PARP- 2 proteins were purified as described previously. Reaction of poly(ADP-ribosyl)ation catalyzed by PARP-1 and PARP-2 was performed at optimal conditions for each enzyme. Briefly, for PARP-1: 50 mM Tris-HCl pH 8.0, 20 mM MgCl2, 150 mM NaCl, 7 mM β-mercaptoethanol, activated DNA (2 o.u.280/ml, degree of activation 25%), 300 •µM NAD^+ (0.18 •µCi [^3H]NAD^+), 37°C. The reaction was started by adding PARP-1 up to a final concentration of 0.2 μM and was stopped after 1 min, placing the reaction mixture on paper filters (Whatman-1) soaked with a 5% solution of trichloroacetic acid. For PARP-2: 50 mM Tris-HCl pH 8.0, 40 mM NaCl, 0.1 mg/ml BSA, 8 mM MgCl2, 1 mM DTT, activated DNA (2 o.u.280/ml, degree of activation 25%), 400 •µM NAD^+ (0.4 •µCi [^3H]NAD^+), 37°C. The reaction was started by adding PARP-2 up to a final concentration of 0.2 μM and was stopped after 5 min, placing the reaction mixture on the paper filters. The filters were washed four times by the 5% trichloroacetic acid, then by 90% ethanol (to remove acid), and air-dried. The quantity of radiolabel included into the acid insoluble product was registered on a scintillation counter Tri-Carb 2800 (Perkin Elmer) in a toluene scintillator. The quantity of the radiolabeled product was determined at the initial rate period.
(§2) The PARP-inhibiting activity of the synthesized compounds was evaluated in a reaction of auto- poly(ADP-ribosyl)ation at a NAD^+ concentration of 0.3 mM for PARP-1 and 0.4 mM for PARP-2. Different concentrations of the tested compounds were added to the reaction mixture before adding the enzyme. Reaction and detection of the products were performed as described above. To determine the IC50 value (concentration of the compound required to reduce the enzyme activity by 50%), the effect of different concentrations of the inhibitor on the enzyme activity was examined. Measurements were done in at least two independent experiments. IC50 values were calculated using the Origin Pro 8.0 software by nonlinear regression analysis.

human PARP-1 = molecular target: T2, human PARP-1 (Homo sapiens, UniProt P09874); test: biochemical; format: biochemical; details: for IC50: auto-poly(ADP-ribosyl)ation, NAD+ 0.3 mM, 37°C
T2 construct: made in house
T2 sequence (P09874 whole entry): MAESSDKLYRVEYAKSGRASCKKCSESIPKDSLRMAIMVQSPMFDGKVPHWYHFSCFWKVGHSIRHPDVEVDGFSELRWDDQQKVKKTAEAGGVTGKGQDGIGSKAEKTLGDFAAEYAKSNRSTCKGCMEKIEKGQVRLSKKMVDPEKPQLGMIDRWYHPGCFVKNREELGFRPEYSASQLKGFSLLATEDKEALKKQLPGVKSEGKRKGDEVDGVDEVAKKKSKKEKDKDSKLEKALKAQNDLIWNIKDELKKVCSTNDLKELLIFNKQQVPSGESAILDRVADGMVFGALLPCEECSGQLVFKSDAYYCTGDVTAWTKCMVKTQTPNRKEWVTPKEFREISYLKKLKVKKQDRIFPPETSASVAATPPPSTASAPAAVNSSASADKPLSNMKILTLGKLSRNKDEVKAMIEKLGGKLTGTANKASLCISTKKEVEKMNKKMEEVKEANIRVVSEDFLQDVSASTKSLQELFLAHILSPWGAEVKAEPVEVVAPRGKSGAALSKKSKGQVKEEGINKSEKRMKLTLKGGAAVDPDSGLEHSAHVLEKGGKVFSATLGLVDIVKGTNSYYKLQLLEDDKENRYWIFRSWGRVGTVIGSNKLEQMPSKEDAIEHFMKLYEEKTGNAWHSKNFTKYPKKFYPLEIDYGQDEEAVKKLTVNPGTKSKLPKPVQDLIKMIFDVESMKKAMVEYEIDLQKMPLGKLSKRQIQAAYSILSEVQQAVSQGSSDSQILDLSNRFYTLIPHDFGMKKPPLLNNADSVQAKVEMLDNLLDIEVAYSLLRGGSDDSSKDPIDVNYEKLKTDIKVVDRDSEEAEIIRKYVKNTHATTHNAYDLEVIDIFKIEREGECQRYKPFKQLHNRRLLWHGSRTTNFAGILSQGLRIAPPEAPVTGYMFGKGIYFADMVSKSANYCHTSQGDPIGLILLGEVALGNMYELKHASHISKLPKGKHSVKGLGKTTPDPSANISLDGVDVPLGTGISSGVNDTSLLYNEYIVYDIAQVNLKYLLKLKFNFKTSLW
Method: as §1, §2

HCC1937 cells [1] = test: Cytotoxicity: Sub-G1 population by flow cytometry; format: cell-based, human; details: for Sub-G1 population: 72 h
Method: (§3) A BRCA1-deficient human breast cancer line HCC1937 (ATCC CRL-2336) was cultured in DMEM supplemented with 10% heat-inactivated fetal bovine serum, penicillin/streptomycin (100 U/ml), and pyruvate (0,11 mg/ml) at 37°C in 20% O2 humidified atmosphere. The cells were maintained in a logarithmic growth phase for all experiments.
(§4) To perform cell cycle analysis, the cells were then harvested after 72 hours, fixed with 70% EtOH (final concentration) for 60 min on ice, rinsed in PBS, and stained in a 500 •µl solution containing 50 •µg/ml propidium iodide and 25 •µg/ml RNase A for 15 min. Data were acquired by a BD FACS CantoII flow cytometer (BD Biosciences) and analyzed using the FACSDiva software. The cleavage of the fluorogenic peptide substrate […] was measured using a fluorometric assay. Upon treatment with cytotoxic agents, the cells were incubated for 48 hours, then harvested and washed with PBS. After centrifugation, they were re-suspended in PBS at a concentration of 2 × 10^6 cells/100 μl. Then, 25 μl of the suspension was added to a 96-well plate and mixed with a DEVD peptide substrate dissolved in a standard reaction buffer (100 mM HEPES, 10% sucrose, 5 mM DTT, 0.001% NP- 40, and 0.1% CHAPS, pH 7.2). Cleavage of the fluorogenic peptide substrate was monitored by AMC liberation in a VarioScan Flash multimode detector (Thermo Scientific) using 380 nm excitation and 460 nm emission wavelengths. Measurements were done in at least two independent experiments.

HCC1937 cells [2] = test: Caspase-3-like activity (fluorogenic peptide substrate cleavage); format: cell-based, human; details: 7-methylguanine alone, 48 h
Method: as §3
as §4, with “Then, 25 μl of the suspension was added to a 96-well plate and mixed with a DEVD peptide substrate dissolved in a standard reaction buffer (100 mM HEPES, 10% sucrose, 5 mM DTT, 0.001% NP- 40, and 0.1% CHAPS, pH 7.2).” left out, “Measurements were done in at least two independent experiments.” left out

PARP-1 = details: cited from earlier work
PARP = tested on: PARP; parameters: method as in PMID 11149897, PMID 16870158; details: cited from earlier work
[3] = replacement of 2-oxo group by amino group

T1 sequence (O88554 whole entry): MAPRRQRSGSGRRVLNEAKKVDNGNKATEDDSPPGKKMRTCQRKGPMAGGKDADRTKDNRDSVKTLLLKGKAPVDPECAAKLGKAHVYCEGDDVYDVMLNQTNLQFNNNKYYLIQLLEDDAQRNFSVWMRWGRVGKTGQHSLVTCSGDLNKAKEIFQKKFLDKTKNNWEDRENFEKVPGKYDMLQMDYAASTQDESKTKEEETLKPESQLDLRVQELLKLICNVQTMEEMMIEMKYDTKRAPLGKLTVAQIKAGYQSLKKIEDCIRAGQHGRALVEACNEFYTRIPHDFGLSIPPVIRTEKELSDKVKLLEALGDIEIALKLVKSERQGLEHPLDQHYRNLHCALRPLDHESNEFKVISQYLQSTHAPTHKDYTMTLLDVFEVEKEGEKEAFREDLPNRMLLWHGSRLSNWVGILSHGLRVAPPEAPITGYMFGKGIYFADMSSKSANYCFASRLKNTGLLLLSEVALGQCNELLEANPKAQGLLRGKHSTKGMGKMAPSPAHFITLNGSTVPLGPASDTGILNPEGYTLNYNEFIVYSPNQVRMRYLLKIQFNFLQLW

IC50 (murine PARP-2): 90 µM
IC50 (human PARP-1): 230 µM
Compound: CCn1cnc2[nH]c(N)nc(=O)c21 [7-ethylguanine, 7-Ethylguanine]

IC50 (murine PARP-2): 50 µM
increase in the ability to inhibit PARP-2 compared with 7-methylxanthine (murine PARP-2; [3]): 3 fold
IC50 (human PARP-1): 150 µM
increase in the ability to inhibit PARP-1 compared with 7-methylxanthine (human PARP-1; [3]): 5 fold
Compound: Cn1cnc2nc(N)[nH]c(=O)c21 [7-methylguanine, 7-Methylguanine]
Sub-G1 population (HCC1937 cells [1]; 7-methylguanine 150 μM alone): around 2%
cytotoxicity (HCC1937 cells [1]; at the PARP inhibitory concentration, 7-methylguanine alone): not cytotoxic
caspase-3 activation (HCC1937 cells [2]): no caspase-3 activation

IC50 (murine PARP-2): 620 µM
IC50 (human PARP-1): 780 µM
Compound: Cn1cnc2nc[nH]c(=O)c21 [7-methylhypoxanthine, 7-Methylhypoxanthine]

IC50 (murine PARP-2): 160 µM
IC50 (human PARP-1): 800 µM
Compound: Cn1cnc2[nH]c(=O)[nH]c(=O)c21 [7-methylxanthine, 7-Methylxanthine]
PARP-1 inhibition (PARP-1): moderate inhibitor

Compound: N.N.[Cl][Pt][Cl] [cisplatin, reference compound]
Sub-G1 population (HCC1937 cells [1]; cisplatin 70 μM alone): 34%

Compound: COc1cccc2c1C(=O)c1c(O)c3c(c(O)c1C2=O)C[C@@](O)(C(=O)CO)C[C@@H]3O[C@H]1C[C@H](N)[C@H](O)[C@H](C)O1 [doxorubicin, reference compound]
Sub-G1 population (HCC1937 cells [1]; doxorubicin 1 μM alone): 32%

Compound: O=c1[nH]cnc2nc[nH]c12 [hypoxanthine]
PARP inhibitory effect (PARP): relatively weak inhibitory effect

Compound: Cc1c[nH]c(=O)[nH]c1=O [thymine]
PARP inhibitory effect (PARP): relatively weak inhibitory effect

Compound: O=c1[nH]c(=O)c2nc[nH]c2[nH]1 [xanthine, reference compound]
PARP-1 inhibition (PARP-1): does not show inhibition
